Source: PubChem BioAssay AID330 (DTP/NCI, 2004)
Values joined by “and” are separate entries in the source; they are usually repeats but may differ in a detail not shown here. Identical values can stand only once. Toxic doses and inconclusive results are not listed. How the source made its calls: active means survival T/C of 150% or more; inactive means T/C below 125% in these data.

System: P388 leukemia ip, CD2F1 mice, survival T/C
Assay: NCI In Vivo Anticancer Drug Screen. Data for tumor model P388 Leukemia (intraperitoneal) in CD2F1 (CDF1) mice
Conditions: endpoint: median survival time, higher = longer survival
Method in brief: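 Mice carrying the transplanted tumor received test compound or vehicle. Survival was recorded in each group, and the value is the treated-group measurement divided by that of the vehicle-treated control group.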

[1] = dose: 100.0 mg/kg/injection, schedule: Q04DX002 (ip), vehicle: saline with Tween-80
[2] = dose: 12.5 mg/kg/injection, schedule: Q01DX009 (ip), vehicle: saline with Tween-80
[3] = dose: 60.0 mg/kg/injection, schedule: Q01DX005 (ip), vehicle: saline with Tween-80
[4] = dose: 120.0 mg/kg/injection, schedule: Q01DX005 (ip), vehicle: saline with Tween-80
[5] = dose: 240.0 mg/kg/injection, schedule: Q01DX005 (ip), vehicle: saline with Tween-80
[6] = dose: 50.0 mg/kg/injection, schedule: Q01DX009 (ip), vehicle: saline with Tween-80
[7] = dose: 100.0 mg/kg/injection, schedule: Q01DX009 (ip), vehicle: saline with Tween-80
[8] = dose: 200.0 mg/kg/injection, schedule: Q01DX009 (ip), vehicle: saline with Tween-80
[9] = dose: 6.25 mg/kg/injection, schedule: Q01DX009 (ip), vehicle: saline with Tween-80
[10] = dose: 25.0 mg/kg/injection, schedule: Q01DX009 (ip), vehicle: saline with Tween-80
[11] = dose: 100.0 mg/kg/injection, schedule: Q04DX003 (ip), vehicle: Klucel (hydroxypropylcellulose) (HPC)
[12] = dose: 200.0 mg/kg/injection, schedule: Q04DX003 (ip), vehicle: Klucel (hydroxypropylcellulose) (HPC)
[13] = dose: 400.0 mg/kg/injection, schedule: Q04DX003 (ip), vehicle: Klucel (hydroxypropylcellulose) (HPC)

Measured: T/C

c1cc[c]([Sn]([S]C23CC4CC(CC(C4)C2)C3)([c]2ccccc2)[c]2ccccc2)cc1
inactive: dose: 100.0 mg/kg/injection, schedule: Q04DX003 (ip), vehicle: suspension in saline 94 % of control | dose: 200.0 mg/kg/injection, schedule: Q04DX003 (ip), vehicle: suspension in saline 98 % of control | dose: 400.0 mg/kg/injection, schedule: Q04DX003 (ip), vehicle: suspension in saline 93 % of control

Cc1nc2c([N+](=O)[O-])c(N3CCN(C)CC3)c([N+](=O)[O-])cc2[nH]1
inactive: dose: 12.5 mg/kg/injection, schedule: Q04DX003 (ip), vehicle: saline with Tween-80 95 % of control | dose: 25.0 mg/kg/injection, schedule: Q04DX003 (ip), vehicle: saline with Tween-80 106 % of control | dose: 50.0 mg/kg/injection, schedule: Q04DX003 (ip), vehicle: saline with Tween-80 100 % of control and 90 % of control | dose: 100.0 mg/kg/injection, schedule: Q04DX003 (ip), vehicle: saline with Tween-80 104 % of control

COP(=O)(OC)C(=[N+]=[N-])P(=O)(OC(C)C)OC(C)C
inactive: dose: 100.0 mg/kg/injection, schedule: Q01DX001 (ip), vehicle: saline 99 % of control | dose: 200.0 mg/kg/injection, schedule: Q01DX001 (ip), vehicle: saline 101 % of control | dose: 400.0 mg/kg/injection, schedule: Q01DX001 (ip), vehicle: saline 100 % of control

CCOC(=O)C1C(=O)N2C(=O)C(NC(C)=O)=C(O)C2C1c1ccccc1 (stereo unspecified)
inactive: [1] 100 % of control | dose: 200.0 mg/kg/injection, schedule: Q04DX002 (ip), vehicle: saline with Tween-80 99 % of control | dose: 400.0 mg/kg/injection, schedule: Q04DX002 (ip), vehicle: saline with Tween-80 100 % of control

CNC(=O)OCc1nn(-c2ccc(Cl)c(Cl)c2)c(C)c1COC(=O)NC
inactive: dose: 12.5 mg/kg/injection, schedule: Q01DX009 (ip), vehicle: distilled water + Tween-80 87 % of control and 93 % of control | dose: 25.0 mg/kg/injection, schedule: Q01DX009 (ip), vehicle: distilled water + Tween-80 86 % of control and 89 % of control | dose: 50.0 mg/kg/injection, schedule: Q01DX009 (ip), vehicle: distilled water + Tween-80 90 % of control | dose: 100.0 mg/kg/injection, schedule: Q01DX009 (ip), vehicle: distilled water + Tween-80 88 % of control | dose: 200.0 mg/kg/injection, schedule: Q01DX009 (ip), vehicle: distilled water + Tween-80 86 % of control and 87 % of control

O=Cc1cc(C=O)c2ccc(=O)[nH]c2n1
inactive: dose: 60.0 mg/kg/injection, schedule: Q01DX005 (ip), vehicle: Klucel (hydroxypropylcellulose) (HPC) 109 % of control | dose: 120.0 mg/kg/injection, schedule: Q01DX005 (ip), vehicle: Klucel (hydroxypropylcellulose) (HPC) 114 % of control

S=C(NC12CC3CC(CC(C3)C1)C2)[NH][Sn]([c]1ccccc1)([c]1ccccc1)[c]1ccccc1
inactive: dose: 0.78 mg/kg/injection, schedule: Q01DX009 (ip), vehicle: saline 92 % of control | dose: 1.56 mg/kg/injection, schedule: Q01DX009 (ip), vehicle: saline 96 % of control | dose: 3.13 mg/kg/injection, schedule: Q01DX009 (ip), vehicle: saline 100 % of control | [2] 117 % of control

CCN(CC)CCCNc1nnnc2ccccc12
inactive: dose: 100.0 mg/kg/injection, schedule: Q04DX002 (ip), vehicle: saline 103 % of control | dose: 200.0 mg/kg/injection, schedule: Q04DX002 (ip), vehicle: saline 90 % of control

O=CNc1ccc(C(=O)O)c(O)c1
inactive: [3] 98 % of control | [4] 93 % of control | [5] 90 % of control

CC(=O)Nc1nc(N)nc(N)n1
inactive: [6] 106 % of control | [7] 103 % of control | [8] 88 % of control

COc1cc(O)c(C(C)=O)c(O)c1
inactive: [9] 102 % of control | [2] 93 % of control | [10] 102 % of control | [6] 100 % of control

CC(=O)OCC1OC(n2cnc3c(=O)n(S(=O)(=O)c4ccc(C)cc4)cnc32)C(OC(C)=O)C1OC(C)=O (stereo unspecified)
inactive: [3] 103 % of control | [4] 106 % of control | [5] 100 % of control

CC(=O)OC1C(=O)OCC1C(=O)N1Cc2cc3ccccc3nc2C1 (stereo unspecified)
inactive: dose: 100.0 mg/kg/injection, schedule: Q01DX001 (ip), vehicle: saline with Tween-80 104 % of control | dose: 200.0 mg/kg/injection, schedule: Q01DX001 (ip), vehicle: saline with Tween-80 101 % of control | dose: 400.0 mg/kg/injection, schedule: Q01DX001 (ip), vehicle: saline with Tween-80 105 % of control

CCCCCOCC(=O)OC
inactive: [6] 98 % of control | [7] 102 % of control | [8] 103 % of control

O=C(Nc1cccc([N+](=O)[O-])c1)OCc1ccc2c(c1)OCO2
inactive: [3] 91 % of control | [4] 90 % of control

NC(=O)C1CCCCC1C(N)=O (stereo unspecified)
inactive: [7] 100 % of control | [8] 104 % of control | dose: 400.0 mg/kg/injection, schedule: Q01DX009 (ip), vehicle: saline with Tween-80 104 % of control

CCCCCCCCn1c(Cl)c(C(=O)O)c2ccccc21
inactive: dose: 100.0 mg/kg/injection, schedule: Q01DX001 (ip), vehicle: Klucel (hydroxypropylcellulose) (HPC) 95 % of control | dose: 200.0 mg/kg/injection, schedule: Q01DX001 (ip), vehicle: Klucel (hydroxypropylcellulose) (HPC) 86 % of control | dose: 400.0 mg/kg/injection, schedule: Q01DX001 (ip), vehicle: Klucel (hydroxypropylcellulose) (HPC) 86 % of control

Nc1ccc2cc3ccccc3cc2c1
inactive: dose: 5.0 mg/kg/injection, schedule: Q01DX009 (ip), vehicle: saline with Tween-80 95 % of control | dose: 5.0 mg/kg/injection, schedule: Q04DX003 (ip), vehicle: saline with Tween-80 95 % of control | dose: 10.0 mg/kg/injection, schedule: Q01DX009 (ip), vehicle: saline with Tween-80 104 % of control | dose: 10.0 mg/kg/injection, schedule: Q04DX003 (ip), vehicle: saline with Tween-80 91 % of control | [2] 100 % of control | dose: 20.0 mg/kg/injection, schedule: Q01DX009 (ip), vehicle: saline with Tween-80 118 % of control | dose: 20.0 mg/kg/injection, schedule: Q04DX003 (ip), vehicle: saline with Tween-80 112 % of control | [10] 109 % of control | dose: 40.0 mg/kg/injection, schedule: Q01DX009 (ip), vehicle: saline with Tween-80 118 % of control | dose: 40.0 mg/kg/injection, schedule: Q04DX003 (ip), vehicle: saline with Tween-80 112 % of control | [6] 109 % of control

CC(C)(C)c1cc(C(=O)O)c2c(c1)C(=O)OCS2
inactive: [11] 99 % of control | [12] 91 % of control | [13] 97 % of control

CCN(CCNc1ccc(C)c2sc3cc(Cl)ccc3c(=O)c12)CC(C)(C)O
inactive: dose: 12.5 mg/kg/injection, schedule: Q01DX005 (ip), vehicle: saline with Tween-80 95 % of control | dose: 25.0 mg/kg/injection, schedule: Q01DX005 (ip), vehicle: saline with Tween-80 92 % of control | dose: 50.0 mg/kg/injection, schedule: Q01DX005 (ip), vehicle: saline with Tween-80 88 % of control and 97 % of control | dose: 200.0 mg/kg/injection, schedule: Q01DX005 (ip), vehicle: saline with Tween-80 95 % of control

O=C(N=c1nc2ccccn2s1)c1ccccc1
inactive: [6] 100 % of control | [7] 98 % of control | [8] 104 % of control

O=C1CCCC(O)=C1[Se]C1=C(O)CCCC1=O
inactive: dose: 6.25 mg/kg/injection, schedule: Q01DX001 (ip), vehicle: saline 103 % of control | dose: 12.5 mg/kg/injection, schedule: Q01DX001 (ip), vehicle: saline 101 % of control | dose: 25.0 mg/kg/injection, schedule: Q01DX001 (ip), vehicle: saline 101 % of control

O=S(=O)(CCl)OCCF
inactive: dose: 1.56 mg/kg/injection, schedule: Q01DX009 (ip), vehicle: saline with Tween-80 110 % of control | dose: 3.12 mg/kg/injection, schedule: Q01DX009 (ip), vehicle: saline with Tween-80 102 % of control | [9] 105 % of control and 117 % of control

Cn1c(=O)c2c(=S)sc(=S)[nH]c2n(C)c1=O
inactive: dose: 25.0 mg/kg/injection, schedule: Q04DX002 (ip), vehicle: saline with Tween-80 106 % of control | dose: 50.0 mg/kg/injection, schedule: Q04DX002 (ip), vehicle: saline with Tween-80 106 % of control | [1] 106 % of control

c1ccc(C2(c3ccccc3)CCc3ccccc3O2)cc1
inactive: [11] 105 % of control | [12] 99 % of control | [13] 99 % of control
